Measurements as given in patent US20100105655A1, “NOVEL COMPOUNDS 515” (ASTRAZENECA AB, priority 2008, published 2010).

The molecules below were run against T1, IGFR kinase (Homo sapiens, UniProt P08069) (assay: Enzyme assay (c), IGFR kinase, Caliper LabChip). Conditions: 30 nM IGFR kinase, 6 uM ATP, 3 uM peptide mix; read-out: IGFR IC50.
T1 construct: purchased Millipore
T1 sequence (P08069 31-1367): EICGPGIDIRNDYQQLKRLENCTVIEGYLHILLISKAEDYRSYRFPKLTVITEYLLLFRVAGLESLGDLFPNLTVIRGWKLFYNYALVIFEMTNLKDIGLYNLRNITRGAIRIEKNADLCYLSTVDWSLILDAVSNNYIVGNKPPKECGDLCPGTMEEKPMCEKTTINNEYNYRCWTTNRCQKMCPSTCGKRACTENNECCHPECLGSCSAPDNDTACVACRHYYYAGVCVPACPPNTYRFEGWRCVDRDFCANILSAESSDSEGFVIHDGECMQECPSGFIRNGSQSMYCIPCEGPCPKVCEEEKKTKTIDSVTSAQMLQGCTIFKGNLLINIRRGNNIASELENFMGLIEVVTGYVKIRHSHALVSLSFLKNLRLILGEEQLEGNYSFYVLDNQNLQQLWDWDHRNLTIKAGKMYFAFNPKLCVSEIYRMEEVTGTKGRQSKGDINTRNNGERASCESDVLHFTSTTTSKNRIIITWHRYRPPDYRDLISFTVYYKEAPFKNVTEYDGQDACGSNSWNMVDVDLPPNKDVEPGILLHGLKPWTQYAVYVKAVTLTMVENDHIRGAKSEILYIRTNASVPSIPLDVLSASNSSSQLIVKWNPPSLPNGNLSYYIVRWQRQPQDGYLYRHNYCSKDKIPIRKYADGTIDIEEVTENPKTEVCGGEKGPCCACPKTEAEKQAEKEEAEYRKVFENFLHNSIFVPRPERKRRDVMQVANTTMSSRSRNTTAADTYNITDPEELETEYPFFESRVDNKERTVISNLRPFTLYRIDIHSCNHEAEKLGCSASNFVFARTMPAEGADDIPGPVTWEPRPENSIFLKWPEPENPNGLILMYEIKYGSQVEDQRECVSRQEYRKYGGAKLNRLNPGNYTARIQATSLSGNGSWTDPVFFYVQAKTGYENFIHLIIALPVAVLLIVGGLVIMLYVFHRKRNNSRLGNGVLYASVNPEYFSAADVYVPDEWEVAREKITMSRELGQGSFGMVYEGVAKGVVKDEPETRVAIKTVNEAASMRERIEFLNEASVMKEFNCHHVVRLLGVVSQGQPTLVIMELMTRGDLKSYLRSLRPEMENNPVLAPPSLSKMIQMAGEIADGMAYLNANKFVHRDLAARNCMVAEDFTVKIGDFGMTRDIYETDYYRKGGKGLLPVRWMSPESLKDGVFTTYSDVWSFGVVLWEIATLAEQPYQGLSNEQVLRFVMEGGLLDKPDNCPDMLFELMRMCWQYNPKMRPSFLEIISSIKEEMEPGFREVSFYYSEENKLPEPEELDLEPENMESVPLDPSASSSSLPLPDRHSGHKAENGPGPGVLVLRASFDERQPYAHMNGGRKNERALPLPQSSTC
Assay type: biochemical
`CNCC(=O)N1CC2CN(c3ccc(Nc4ncc(Cl)c(-c5cnc6c(F)cccn56)n4)c(OC)c3)CC(C1)O2` [Example 208, 1-[3-[4-[[5-chloro-4-(8-fluoroimidazo[1,2-a]pyridin-3-yl)pyrimidin-2-yl]amino]-3-methoxy-phenyl]-9-oxa-3,7-diazabicyclo[3.3.1]nonan-7-yl]-2-(methylamino)ethanone] gave an IC50 of 26 nM.
In the case of `COc1cc(OC2CCN(S(C)(=O)=O)CC2)ccc1Nc1ncc(Cl)c(-c2cnc3ccccn23)n1` [Example 8, 5-chloro-4-imidazo[1,2-a]pyridin-3-yl-N-[2-methoxy-4-[(1-methylsulfonyl-4-piperidyl)oxy]phenyl]pyrimidin-2-amine], the IC50 is reported as 20 nM.
In the case of `COc1cc(N2CCN(CCO)CC2)ccc1Nc1ncc(C(F)(F)F)c(-c2cnc3ccccn23)n1` [Example 109, 2-[4-[4-[[4-imidazo[1,2-a]pyridin-3-yl-5-(trifluoromethyl)pyrimidin-2-yl]amino]-3-methoxy-phenyl]piperazin-1-yl]ethanol], the IC50 is reported as 16 nM.
`COc1cc(OC[C@@H]2CCCN2C(C)=O)ccc1Nc1ncc(Cl)c(-c2cnc3ccccn23)n1` [Example 16, 1-[(2S)-2-[[4-[(5-chloro-4-imidazo[1,2-a]pyridin-3-yl-pyrimidin-2-yl)amino]-3-methoxy-phenoxy]methyl]pyrrolidin-1-yl]ethanone] gave an IC50 of 32 nM.
`COc1cc(N2CCN(C(=O)[C@@H](N)CCO)CC2)ccc1Nc1ncc(Cl)c(-c2cnc3ccccn23)n1` [Example 24.13, (2S)-2-amino-1-[4-[4-[(5-chloro-4-imidazo[1,2-a]pynidin-3-yl-pyrimidin-2-yl)amino]-3-methoxy-phenyl]piperazin-1-yl]-4-hydroxy-butan-1-one] was tested, and the IC50 was 5 nM.
With `COc1cc(N2CCN(C(C)=O)CC2)ccc1Nc1ncc(Cl)c(-c2cnc3cc(Br)ccn23)n1` [Example 126.19, 1-[4-[4-[[4-(7-bromoimidazo[1,2-a]pyridin-3-yl)-5-chloro-pyrimidin-2-yl]amino]-3-methoxy-phenyl]piperazin-1-yl]ethanone] the IC50 was 15 nM.
Work on `COc1cc(N2CCN(CCO)CC2)ccc1Nc1ncc(F)c(-c2cnc3c(F)cccn23)n1` [Example 195, 2-[4-[4-[[5-fluoro-4-(8-fluoroimidazo[1,2-a]pyridin-3-yl)pyrimidin-2-yl]amino]-3-methoxy-phenyl]piperazin-1-yl]ethanol] yielded an IC50 of 33 nM.
`COc1cc(C2CCN(C(=O)CO)CC2)ccc1Nc1ncc(C)c(-c2cnn3ccccc23)n1` [Example 163, 2-hydroxy-1-[4-[3-methoxy-4-[(5-methyl-4-pyrazolo[1,5-a]pyridin-3-yl-pyrimidin-2-yl)amino]phenyl]-1-piperidyl]ethanone] gave an IC50 of 16 nM.
Molecule `COc1cc(C2CNC(=O)C2)ccc1Nc1ncc(Cl)c(-c2cnc3ccccn23)n1` (centres unmarked) [Example 3.24, 4-[4-[(5-chloro-4-imidazo[1,2-a]pyridin-3-yl-pyrimidin-2-yl)amino]-3-methoxy-phenyl]pyrrolidin-2-one] has an IC50 of 8 nM.
Work on `COc1cc(N2CCN(CCO)CC2)ccc1Nc1ncc(Cl)c(-c2cnn3ccccc23)n1` [Example 134, 2-[4-[4-[(5-chloro-4-pyrazolo[1,5-a]pyridin-3-yl-pyrimidin-2-yl)amino]-3-methoxy-phenyl]piperazin-1-yl]ethanol] yielded an IC50 of 5 nM.
Molecule `CNCC(=O)N1CCN(c2ccc(Nc3ncc(C)c(-c4cnn5ccccc45)n3)c(OC)c2)CC1` [Example 160, 1-[4-[3-methoxy-4-[(5-methyl-4-pyrazolo[1,5-a]pyridin-3-yl-pyrimidin-2-yl)amino]phenyl]piperazin-1-yl]-2-(methylamino)ethanone] has an IC50 of 14 nM.
In the case of `COc1cc(C(CO)CNC(C)=O)ccc1Nc1ncc(Cl)c(-c2cnc3ccccn23)n1` (centres unmarked) [Example 276, N-[2-[4-[(5-chloro-4-imidazo[1,2-a]pyridin-3-yl-pyrimidin-2-yl)amino]-3-methoxy-phenyl]-3-hydroxy-propyl]acetamide], the IC50 is reported as 15 nM.
In the case of `COc1cc(N2CCNC(C(=O)N(C)C)C2)ccc1Nc1ncc(Cl)c(-c2cnc3ccccn23)n1` (centres unmarked) [Example 19, 4-[4-[(5-chloro-4-imidazo[1,2-a]pyridin-3-yl-pyrimidin-2-yl)amino]-3-methoxy-phenyl]-N,N-dimethyl-piperazine-2-carboxamide], the IC50 is reported as 11 nM.
Molecule `COc1cc(N2CCN(C(=O)[C@@H](O)CO)CC2)ccc1Nc1ncc(Cl)c(-c2cnc3ccccn23)n1` [Example 56, (2S)-1-[4-[4-[(5-chloro-4-imidazo[1,2-a]pyridin-3-yl-pyrimidin-2-yl)amino]-3-methoxy-phenyl]piperazin-1-yl]-2,3-dihydroxy-propan-1-one] has an IC50 of 6 nM.
`COc1cc(N2CC3CN(C(=O)[C@@H](N)CO)CC(C2)O3)ccc1Nc1ncc(Cl)c(-c2cnc3c(F)cccn23)n1` [Example 210, (2S)-2-amino-1-[7-[4-[[5-chloro-4-(8-fluoroimidazo[1,2-a]pyridin-3-yl)pyrimidin-2-yl]amino]-3-methoxy-phenyl]-9-oxa-3,7-diazabicyclo[3.3.1]nonan-3-yl]-3-hydroxy-propan-1-one] gave an IC50 of 36 nM.
For `CCN1CCN(c2ccc(Nc3ncc(F)c(-c4cnc5ccccn45)n3)c(OC)c2)CC1` [Example 120, N-[4-(4-ethylpiperazin-1-yl)-2-methoxyphenyl]-5-fluoro-4-imidazo[1,2-a]pyridin-3-ylpyrimidin-2-amine], the IC50 was 128 nM.
Work on `COc1cc(C2CN(C(=O)[C@H](C)O)C2)ccc1Nc1ncc(Cl)c(-c2cnn3ccccc23)n1` [Example 135A] yielded an IC50 of 11 nM.
In the case of `COc1cc(OC2CN(C(=O)N(C)C)C2)ccc1Nc1ncc(Cl)c(-c2cnc3ccccn23)n1` [Example 69, 3-[4-[(5-chloro-4-imidazo[1,2-a]pyridin-3-yl-pyrimidin-2-yl)amino]-3-methoxy-phenoxy]-N,N-dimethyl-azetidine-1-carboxamide], the IC50 is reported as 32 nM.
For `COc1cc(N2CCN(CCO)[C@@H](C)C2)ccc1Nc1ncc(C)c(-c2cnc3ccccn23)n1` [Example 271, 2-[(2S)-4-[4-[(4-imidazo[1,2-a]pyridin-3-yl-5-methyl-pyrimidin-2-yl)amino]-3-methoxy-phenyl]-2-methyl-piperazin-1-yl]ethanol], the IC50 was 190 nM.
`CNC(=O)C1CCN(c2ccc(Nc3ncc(Cl)c(-c4cnc5c(F)cccn45)n3)c(OC)c2)CC1` [Example 222, 1-[4-[[5-chloro-4-(8-fluoroimidazo[1,2-a]pyridin-3-yl)pyrimidin-2-yl]amino]-3-methoxy-phenyl]-N-methyl-piperidine-4-carboxamide] showed an IC50 of 3 nM.
With `COc1cc(OC2CN(CCO)C2)ccc1Nc1ncc(Cl)c(-c2cnc3ccccn23)n1` [Example 64, 2-[3-[4-[(5-chloro-4-imidazo[1,2-a]pyridin-3-yl-pyrimidin-2-yl)amino]-3-methoxy-phenoxy]azetidin-1-yl]ethanol] the IC50 was 19 nM.
In the case of `COc1cc(OC[C@H]2CCCN2)ccc1Nc1ncc(F)c(-c2cnc3ccccn23)n1` [Example 87, 5-fluoro-4-imidazo[1,2-a]pyridin-3-yl-N-[2-methoxy-4-[[(2R)-pyrrolidin-2-yl]methoxy]phenyl]pyrimidin-2-amine], the IC50 is reported as 65 nM.
`COCC(=O)N1CCN(c2ccc(Nc3ncc(Cl)c(-c4cnc5ccccn45)n3)c(OC)c2)CC1` [Example 39, 1-[4-[4-[(5-chloro-4-imidazo[1,2-a]pyridin-3-yl-pyrimidin-2-yl)amino]-3-methoxy-phenyl]piperazin-1-yl]-2-methoxy-ethanone] showed an IC50 of 12 nM.
With `COc1cc(C2CCN(C(C)=O)CC2)ccc1Nc1ncc(C)c(-c2cnn3ccccc23)n1` [Example 233, 1-[4-[3-methoxy-4-[(5-methyl-4-pyrazolo[1,5-a]pyridin-3-yl-pyrimidin-2-yl)amino]phenyl]-1-piperidyl]ethanone] the IC50 was 9 nM.
`COc1cc(N2CC3CN(C)CC(C2)O3)ccc1Nc1ncc(Cl)c(-c2cnc3c(F)cccn23)n1` [Example 203, 5-chloro-4-(8-fluoroimidazo[1,2-a]pyridin-3-yl)-N-[2-methoxy-4-(7-methyl-9-oxa-3,7-diazabicyclo[3.3.1]nonan-3-yl)phenyl]pyrimidin-2-amine] was tested, and the IC50 was 9 nM.
With `COc1cc(O[C@@H]2CCN(C(C)=O)C2)ccc1Nc1ncc(Cl)c(-c2cnc3ccccn23)n1` [Example 10, 1-[(3R)-3-[4-[(5-chloro-4-imidazo[1,2-a]pyridin-3-yl-pyrimidin-2-yl)amino]-3-methoxy-phenoxy]pyrrolidin-1-yl]ethanone] the IC50 was 20 nM.
In the case of `COc1cc(N2CC3CN(C(=O)CN)CC(C2)O3)ccc1Nc1ncc(Cl)c(-c2cnc3c(F)cccn23)n1` [Example 209, 2-amino-1-[7-[4-[[5-chloro-4-(8-fluoroimidazo[1,2-a]pyridin-3-yl)pyrimidin-2-yl]amino]-3-methoxy-phenyl]-9-oxa-3,7-diazabicyclo[3.3.1]nonan-3-yl]ethanone], the IC50 is reported as 30 nM.
`COc1cc(N2CCN(C(C)=O)CC2)ccc1Nc1ncc(C)c(-c2cnc3ccccn23)n1` [Example 97, 1-[4-[4-[(4-imidazo[1,2-a]pyridin-3-yl-5-methyl-pyrimidin-2-yl)amino]-3-methoxy-phenyl]piperazin-1-yl]ethanone] was tested, and the IC50 was 47 nM.
Molecule `COc1cc(N2CCN(C(=O)C3CC3)CC2)ccc1Nc1ncc(Cl)c(-c2cnc3ccccn23)n1` [Example 43, [4-[4-[(5-chloro-4-imidazo[1,2-a]pyridin-3-ylpyrimidin-2-yl)amino]-3-methoxyphenyl]piperazin-1-yl]-cyclopropylmethanone] has an IC50 of 10 nM.
Work on `COc1cc(CN2CCN(C)CC2)ccc1Nc1ncc(Cl)c(-c2cnc3ccccn23)n1` [Example 21.4, 5-chloro-4-imidazo[1,2-a]pyridin-3-yl-N-[2-methoxy-4-[(4-methylpiperazin-1-yl)methyl]phenyl]pyrimidin-2-amine] yielded an IC50 of 30 nM.
`COc1cc(N2CCN(CCC#N)CC2)ccc1Nc1ncc(Cl)c(-c2cnc3ccccn23)n1` [Example 49, 3-[4-[4-[(5-chloro-4-imidazo[1,2-a]pyridin-3-yl-pyrimidin-2-yl)amino]-3-methoxy-phenyl]piperazin-1-yl]propanenitrile] showed an IC50 of 14 nM.
`COc1cc(N2CCN(C(=O)[C@H](N)CO)CC2)ccc1Nc1ncc(Cl)c(-c2cnc3ccccn23)n1` [Example 24.12, (2R)-2-amino-1-[4-[4-[(5-chloro-4-imidazo[1,2-a]pyridin-3-yl-pyrimidin-2-yl)amino]-3-methoxy-phenyl]piperazin-1-yl]-3-hydroxy-propan-1-one] showed an IC50 of 6 nM.
